Several values for one entry are separate records, joined by “and”; a condition that tells them apart may be missing. Identical values can stand only once. Entries after “also recorded” stand apart in the source; their conditions may differ.
What was measured:
Assay type in all cases: in vivo
[1] = tested on: larval P. argentipes sand flies; assay: Larval bioassay with feces of cattle given a single oral dose of fipronil; details: for Days after dosing to attain 100% mortality in sand flies: cattle
Experimental: (§1) The test substance was given to the cattle orally as a single application. The oral treatment was by hand. Because the oral treatment was delivered in capsule form the dosage was very precise.
(§2) The four dose levels of fipronil for the treatment groups used in this study were as follows: 0.5, 1.0, 2.0 and 4.0 mg/kg. These were weighed with an analytical balance to the nearest 0.01 g and presented in gelatin capsules.
Collection of feces was performed at pre-dosing (day 0) and days 1, 3, 5, 7, 14, 21, and 28 following administration. Feces were sampled using arm length veterinarian sterile glove and about 50 g of feces was placed into individually label plastic jars. Samples were stored in a −20° C. freezer.
Larval bioassay jars were prepared using 48 mm, 100 g round Dibbi jars (Pearlpet, Pearl Polymers LTD., New Delhi, India). Jars were prepared by burning three small holes into the bottom of the container with a soldering iron. A thin layer (approximately 5 mm) of plaster of Paris was cast on the bottom and wetted to ensure humidity and softening of the test diet. To simplify mortality counts, the plaster was quartered, and each quadrant numbered one through four, using an ultra fine black marker. The lids of the jars were punctured with 15-20 small holes using a heated 24-gauge hypodermic needle.
Each bioassay jar was loaded with ten one to two day old first instar P. argentipes larvae. Approximately 5 mg treated feces were sprinkled evenly over the plaster. Larval bioassay samples were maintained in a controlled environment at approximately 24° C. with relative humidity maintained at approximately 80% through daily moistening of paper towels underneath the jars. Any observed mold or mites were removed during each day's observation. Each bioassay group included one control jar with larvae provided standard larval food consisting of rabbit feed, rabbit pellets, and dried chicken blood which were mixed, dried, composted, and crushed. Mortality counts of larvae were conducted every 24 hours post-exposure until 100% mortality or pupation was observed. Larvae were considered dead if no physical response was observed within 15 seconds of light stimulation with a blunt probe.

[2] = Cattle dosing, observation for adverse effects; details: 0.5, 1.0, 2.0, and 4.0 mg/kg body weight, single oral dose
Experimental: as §1
The observation period can be extended, if necessary based on drug persistence data and residue analysis. The first day of dose application was designated as day 0.
as §2
Body weights were recorded individually for all animals during randomization, at the beginning of each week (Monday) during the study period, and at the termination of the study.

[3] = tested on: adult sand flies (P. argentipes); assay: Adult sand fly bioassay on cattle given oral fipronil
Experimental: as §1, §2
A breeding colony of P. argentipes was established during 2009 and is situated in Patna. The colony contains an average of 10,000 sand flies. Adults and larvae are used routinely for studies and are maintained under controlled temperature and humidity conditions.
Adult sand flies used in this study were transferred to a mud plastered hut built next to the cattle shed. This was to acclimate lab-ready sand flies to natural environmental conditions in which the study was to be conducted. The sand flies were kept in 0.4 m^3 cloth mesh enclosures.
Adult sand fly bioassays were conducted on days 1, 3, 5, 7, 14, 21, and 28 after oral administration of fipronil. […] Sand flies were counted and placed in a sand fly feeding capsule (10 cm diameter×2 cm deep). […]
Two sand fly feeding capsules were used per cow. […] Sand flies were allowed to feed for 60 minutes and were monitored closely throughout the feeding period. […]

[4] = tested on: P. argentipes 1st instar larvae; assay: Larval bioassay with feces of insecticide treated R. rattus (feed through)
Experimental: In the first study, a feed through study comparing diflubenzuron, fipronil, ivermectin, and eprinomectin was conducted on rats (Rattus rattus). Fecal samples were collected after three (3) consecutive days of administration of the trial products. The efficacy of the drugs administered during the blind study underwent testing in larval bioassays with P. argentipes 1st instar larvae. Commercially available chicken feed was mixed with the appropriate concentrations of each insecticide compound and used as is in the trial.
Twelve (12) locally purchased rats (Rattus rattus) of mixed sex were utilized in a small study testing the efficacy of four feed through insecticides. Five treatment groups of two rats each were randomly identified and fed diets consisting of locally available chicken feed treated with one of the following compounds: diflubenzuron (0.048%), fipronil (0.015%), ivermectin (0.025%), and eprinomectin (0.01% and 0.025%). Two rats served as control and were fed only chicken feed. Rats were fed 20 g of their assigned diet daily at the same time, with daily consumption and spillage calculated for a period of three (3) days. Sand fly analyses were conducted simultaneously.
[…] Collected feces were dried at approximately 40° C. in an oven then ground into a fine powder utilizing a pestle and mortar and frozen at −20° C. until larval bioassays were initiated.
Larval bioassay pots were prepared using 48 mm, 100 g round Dibbi jars. Dishes were prepared by burning several small holes into the bottom of the dish with a soldering iron and filling them with a small layer of plaster (¼ to ½ inch depth). Approximately 15-20 holes were punctured into the lids using 24 gauge needles. For simpler mortality counting, pots were quartered and each quadrant numbered using an ultra fine black Sharpie.
For each individual post-treatment bioassays, thirteen (13) dishes were loaded with 10 day old 1st instar P. argentipes larvae; twelve (12) pots were provided with approximately 0.005 g of the treated feces, with two sample pots per treated bandicoot rat, and one overall control sample fed only standard larval diet. See Table 1 for sample/treatment correlations. Larvae were loaded into bioassay pots and provided with their designated treatment sample. Mortality counts of larvae were conducted every 24 hours post-treatment until 100% mortality, or pupation, was reached.

[5] = feces of R. rattus day-1 post treatment, 150 ppm

Compound: N#Cc1nn(-c2c(Cl)cc(C(F)(F)F)cc2Cl)c(N)c1[S+]([O-])C(F)(F)F (stereo not drawn) [fipronil]
- Larval mortality ([1]; all dose levels (0.5-4.0 mg/kg), over the 21-day study): 100%
- Day by which 100% sand fly mortality was attained ([1]; cattle feces of day 3 post-treatment, dose level not stated): ≤ 4 days
- Days after dosing to attain 100% mortality in sand flies ([1]; single oral dose 0.5 mg/kg, feces of day 1 after administration): 5.5 days
- Days after dosing to attain 100% mortality in sand flies ([1]; single oral dose 0.5 mg/kg, feces of day 3 after administration): 6.0 days
- Days after dosing to attain 100% mortality in sand flies ([1]; single oral dose 0.5 mg/kg, feces of day 5 after administration): 9.5 days
- Days after dosing to attain 100% mortality in sand flies ([1]; single oral dose 0.5 mg/kg, feces of day 14 after administration): 17 days
- Days after dosing to attain 100% mortality in sand flies ([1]; single oral dose 0.5 mg/kg, feces of day 21 after administration): 15.5 days
- Days after dosing to attain 100% mortality in sand flies ([1]; single oral dose 1.0 mg/kg, feces of day 1 after administration): 4.5 days
- Days after dosing to attain 100% mortality in sand flies ([1]; single oral dose 1.0 mg/kg, feces of day 3 after administration): 4.0 days
- Days after dosing to attain 100% mortality in sand flies ([1]; single oral dose 1.0 mg/kg, feces of day 5 after administration): 9.0 days
- Days after dosing to attain 100% mortality in sand flies ([1]; single oral dose 1.0 mg/kg, feces of day 14 after administration): 20 days
- Days after dosing to attain 100% mortality in sand flies ([1]; single oral dose 1.0 mg/kg, feces of day 21 after administration): 16.5 days
- Days after dosing to attain 100% mortality in sand flies ([1]; single oral dose 2.0 mg/kg, feces of day 1 after administration): 4.0 days
- Days after dosing to attain 100% mortality in sand flies ([1]; single oral dose 2.0 mg/kg, feces of day 3 after administration): 4.0 days
- Days after dosing to attain 100% mortality in sand flies ([1]; single oral dose 2.0 mg/kg, feces of day 5 after administration): 7.0 days
- Days after dosing to attain 100% mortality in sand flies ([1]; single oral dose 2.0 mg/kg, feces of day 14 after administration): 10 days
- Days after dosing to attain 100% mortality in sand flies ([1]; single oral dose 2.0 mg/kg, feces of day 21 after administration, 2 mg/kg): 12 days and 12.0 days
- Days after dosing to attain 100% mortality in sand flies ([1]; single oral dose 4.0 mg/kg, feces of day 1 after administration): 4.0 days
- Days after dosing to attain 100% mortality in sand flies ([1]; single oral dose 4.0 mg/kg, feces of day 3 after administration): 4.0 days
- Days after dosing to attain 100% mortality in sand flies ([1]; single oral dose 4.0 mg/kg, feces of day 5 after administration): 6.5 days
- Days after dosing to attain 100% mortality in sand flies ([1]; single oral dose 4.0 mg/kg, feces of day 14 after administration): 11 days
- Days after dosing to attain 100% mortality in sand flies ([1]; single oral dose 4.0 mg/kg, feces of day 21 after administration, 4 mg/kg): 10 days and 10.0 days
- Adverse effect from dosing the cattle [2]: no observed adverse effect
- Level of control of adult sand flies as a systemic ([3]; cattle, oral, without having an impact on milk residues): high levels of control were not attainable
- Adult sand fly mortality versus dose level ([3]; days 14 and 21 post-treatment, one hour exposure to cattle, 0.5-4.0 mg/kg): mortality increased with dose level
- Mean ± SEM survival (days) of P. arg larvae post-exposure [4, 5]: 2.25 ± 0.10 days
- P. argentipes larvae mortality (%) [4, 5]: 100%
- Day of observation by which 100% larval mortality was reached ([4]; feces of R. rattus fed 0.015% in feed): ≤ 3 days
- Time to paralysis of larvae after exposure ([4]; larvae exposed to feces of fipronil-treated animals): ≤ 24 h
- Speed of mortality and duration of effectiveness compared with the other compounds tested ([4]; larval P. argentipes, rodent feed through trials): quickest mortality and longest lasting effectiveness of all of the compounds tested; also recorded: quickest knockdown and longest lasting efficacy of all of the insecticides examined

Source: US20170280722A1, “COMPOSITIONS AND METHODS FOR CONTROL OF SAND FLIES AND OTHER BLOOD SUCKING INSECTS” (GENESIS LABORATORIES, INC., priority 2010, published 2017)
